According to patent US5445944A, “Methods for determining peroxidately active substances” (Syntex (U.S.A.) Inc., priority 1994, dated 1995):

Key:
[1] = Trapping of / reaction with oxidized dicarboxidine in solution
[2] = Suitability of benzidines as hydrogen donor in the peroxidase cleavage reaction
HRP [3] = molecular target: T1, HRP (Armoracia rusticana, UniProt P00433); test: Release of fluorophore, pH jump method (HRP/H2O2 cleavage at pH 5.0, fluorescence read at pH 8.0); type: biochemical, horseradish; settings: pH jump: reaction in citrate buffer pH 5.0 with H2O2 and 0.1 mL HRP (10 ng/mL); aliquot read in phosphate buffer pH 8.0; experiment repeated (two lines)
T1 sequence (P00433 31-338 limits assumed): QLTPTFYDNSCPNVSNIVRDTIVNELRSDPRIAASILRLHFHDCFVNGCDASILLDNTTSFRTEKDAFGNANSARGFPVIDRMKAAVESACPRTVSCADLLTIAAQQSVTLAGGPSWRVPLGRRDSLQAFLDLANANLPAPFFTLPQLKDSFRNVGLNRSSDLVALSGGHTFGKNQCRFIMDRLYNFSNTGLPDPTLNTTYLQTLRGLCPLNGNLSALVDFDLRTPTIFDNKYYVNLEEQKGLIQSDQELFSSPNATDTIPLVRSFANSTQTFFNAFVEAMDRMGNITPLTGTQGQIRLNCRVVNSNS
Method: 0.01 mL of dicarboxidine 11 (or XV), 0.1 mL of 49 and 0.04 mL of H2 O2 were added to 0.75 mL (0.76 mL) citrate buffer (pH 5.0, 0.1M); 0.1 mL of HRP (10 ng/mL) was added to start the reaction. 0.05 mL of this solution was taken every three minutes and added to 0.95 mL of phosphate buffer (pH 8.0, 1.0M) and spectra recorded. This experiment was repeated.
Results: Fluorescence after 3 minutes--background fluorescence.

HRP [4] = molecular target: T1, HRP; test: Release of fluorophore at pH 7.0 (HRP/H2O2); type: biochemical, horseradish; settings: phosphate buffer 0.1M pH 7.0, H2O2, 0.1 mL HRP (100 ng/mL); experiment repeated (two lines)
Method: 0.01 mL of dicarboxidine 11 (or XV), 0.1 mL of 49 and 0.04 mL of H2 O2 were added to 0.75 mL (0.76 mL) of phosphate buffer (0.1M, pH 7.0). 0.1 mL of HRP (100 ng/mL) was added to start the reaction and the spectra recorded. This experiment was repeated.

Q: For COc1ccc(O)c(C(=O)O)c1 [2-hydroxy-5-methoxy benzoic acid], which “Effect on / reaction with oxidized dicarboxidine” value (“Effect on / reaction” for short) [1] is on record?
A: has no effect on oxidized dicarboxidine

Q: For COc1ccc(O)cc1C(=O)O [2-methoxy-5-hydroxybenzoic acid], which “Effect on / reaction” value [1] is on record?
A: react with oxidized dicarboxidine

Q: Which “Function as benzidine hydrogen donor” value [2] does the source give for Cc1cc(-c2cc(C)c(N)c(C)c2)cc(C)c1N [3,3',5,5'-tetramethylbenzidine] here?
A: do not react at a rate acceptable for assays

Q: With Cc1cc(-c2ccc(N)c(C)c2)ccc1N [3,3'-dimethylbenzidine] as the molecule, how does the “Function as benzidine hydrogen donor” value [2] read?
A: function in the present invention

Q: What does the source list for O=C(NCCS(=O)(=O)O)c1cc2ccc(Oc3ccc(O)cc3)cc2oc1=O [Compound 49]?
A: Fluorescence after 3 minutes--background fluorescence (HRP [3]): 0.50 F.U.; Fluorescence (HRP [4]): 40 F.U.

Q: With O=C(O)c1cc(O)ccc1O [Gentisic acid, gentisic acid] as the molecule, how does the “Effect on / reaction” value [1] read?
A: react with oxidized dicarboxidine

Q: Which “Function as benzidine hydrogen donor” value [2] does the source give for CN(C)c1ccc(-c2ccc(N(C)C)cc2)cc1 [N,N,N',N'-tetramethylbenzidine] here?
A: do not react at a rate acceptable for assays

Q: For COc1ccc(OC)cc1 [Para-methoxy anisole], which “Effect on / reaction” value [1] is on record?
A: has no effect on oxidized dicarboxidine

Q: With Nc1ccc(-c2ccc(N)cc2)cc1 [benzidine] as the molecule, how does the “Function as benzidine hydrogen donor” value [2] read?
A: function in the present invention

Q: With COc1ccccc1OC [ortho-methoxy anisole] as the molecule, how does the “Effect on / reaction” value [1] read?
A: has no effect on oxidized dicarboxidine
